Consider 6 molecules from US5457051A, “Enantioselective hydrolysis of ketoprofen esters by beauveria bassiana and enzymes derived therefrom” (Sepracor, Inc., priority 1993, dated 1995).

Assay [1] concerns Beauveria ester hydrolase. The experiment in a line: Sensitivity of the enzyme to PMSF. It counts as biochemical, Beauveria bassiana. The text has this:
(§1) Although the enzyme hydrolyzes the water-soluble choline ester, it appears that the enzyme might be a lipase.

The test system of assay [2] is Beauveria ester hydrolase. Particulars: at 40 mM acid; partially purified enzyme preparation.
For assay [3], the system named is Beauveria ester hydrolase. The experiment in a line: Substrate specificity of the enzyme preparation (Table 9; lipase and protease substrates). It counts as biochemical, Beauveria bassiana. Particulars: compound used as substrate. Here is the method: A one-mL (final volume) reaction mixture contained ketoprofen choline ester (6 mg), NaPi buffer (200 mM, pH 6.5), and 150 mg of whole cells or pellet, or 300 μL cell crude extract. The reaction was carried out at 30° C. in a shaker with a reciprocal speed of 169 rpm. Routine assays of the enzyme were performed by using p-nitrophenyl ketoprofen as a substrate at 30° C.
as §1

For assay [4], the system named is Beauveria ester hydrolase. The experiment in a line: Km from the activity of the preparation at different concentrations of substrate. Format: biochemical, Beauveria bassiana. Particulars: partially purified enzyme preparation.

Starred links: 1 amine or outer side, 2 acyl side, 3 side chain; linkers in the order of their positions; H or OH if unused. Residues, ends and D or L forms follow the SMILES beside them. *: point of attachment. pNA = O=[N+]([O-])c1ccc(N*)cc1; Suc = O=C(CCC(=O)[*:2])[*:1]

Take `O=S(=O)(F)Cc1ccccc1` [PMSF, phenylmethylsulfonylfluoride]: the “sensitivity of the enzyme to the inhibitor (in words)” value in assay [1] is given as “sensitive”.
`C[C@@H](C(=O)O)c1cccc(C(=O)c2ccccc2)c1` [acid product, R-ketoprofen]: the “inhibition of the enzyme by reaction product” value in assay [2] is reported as “approximately 45%”.
With `CCCCCCCCCCCCCCCC(=O)Oc1ccc([N+](=O)[O-])cc1` [p-nitrophenyl palmitate], the “Enzymic activity (n mole substrate hydrolyzed/min/mL enzyme)” value in assay [3] is on record as 7496 n mole substrate hydrolyzed/mi.
As for `CC(=O)Oc1ccc([N+](=O)[O-])cc1` [p-nitrophenyl acetate], the “Enzymic activity (n mole substrate hydrolyzed/min/mL enzyme)” value in assay [3] is 215 n mole substrate hydrolyzed/mi.
`C[C@H](NC(=O)CCC(=O)O)C(=O)N[C@@H](C)C(=O)N1CCC[C@H]1C(=O)N[C@@H](Cc1ccccc1)C(=O)Nc1ccc([N+](=O)[O-])cc1` [N-succinyl-ala-ala-pro-phe-p-nitroaniline] (Suc-AAPF-pNA): the “hydrolysis of the substance by the enzyme preparation (in words)” value in assay [3] is “does not hydrolyze”.
For `CC(C(=O)OCC[N+](C)(C)C)c1cccc(C(=O)c2ccccc2)c1` (racemic) [ketoprofen choline ester], in assay [4], the estimated km is listed as 4.96 mM.
